18 molecules from US20190375708A1 (VenatoRx Pharmaceuticals, Inc., priority 2018, published 2019) can be followed below.

The structures appear in SMILES notation.

The subject of data set [1] is HBV replication in HepAD38 cells. The data set can be described thus: Anti-HBV replication assay in HepAD38 cells (QPCR of extracellular HBV DNA). The settings on record: Hepatitis B virus, 168 h, 7 days incubation, extracellular HBV DNA by QPCR, read-out: Anti-HBV EC50. In kind it is cell-based, HBV (genotype D, serotype ayw). The gist of the method:
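Steps: seed HepAD38 overnight without tetracycline; refresh medium and add 1 log10 serial dilutions ([…]); incubate 7 days at 37 °C; quantify supernatant HBV DNA by QPCR; derive EC50 from a 4-parameter dose-response fit.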

Data set [2] is described as follows: In vitro cytotoxicity assay (MTT cell viability) in HepG2 cells. The note with it: human. In kind it is cell-based, human. Put shortly: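 CC50 values reflect loss of HepG2 viability after a 7-day exposure at 37 °C, 5% CO2. After 3-4 h with MTT, solubilized formazan was quantified at 492 nm relative to vehicle wells.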

The term EC50 denotes the concentration giving half of the maximal effect. A word on the CC50: it is the concentration that lowers cell viability or growth by half. Read a high CC50 as lower toxicity to the cells. In the case of `Cc1cc(NC(=O)c2c(C)c(C(=O)C(=O)NC(C)(C)c3noc(CN(C)C)n3)n(C)c2C)cnc1F` [Example 200, 5-(2-((2-(5-((dimethylamino)methyyl)-1,2,4-oxadiazol-3-yl)propan-2-yl)amino)-2-oxoacetyl)-N-(6-fluoro-5-methylpyridin-3-yl)-1,2,4-trimethyl-1H-pyrrole-3-carboxamide], the EC50 in data set [1] was 50 to 499 nM. For the same molecule, the CC50 at 7 days in data set [2] is greater than 30 µM.
The corresponding values for `Cc1nnc(C2(NC(=O)C(=O)c3c(C)c(C(=O)Nc4ccc(F)c(C)c4)c(C)n3CCF)CC2)o1` [Example 201, N-(4-fluoro-3-methylphenyl)-1-(2-fluoroethyl)-2,4-dimethyl-5-(2-((1-(5-methyl-1,3,4-oxadiazol-2-yl)cyclopropyl)amino)-2-oxoacetyl)-1H-pyrrole-3-carboxamide] are 50 to 499 nM and greater than 30 µM.
Turning to `Cc1cc(NC(=O)c2c(C)c(C(=O)C(=O)NC(C)(C)c3nc(CN(C)C)no3)n(CCF)c2C)ccc1F` [Example 202, 5-(2-((2-(3-((dimethylamino)methyl)-1,2,4-oxadiazol-5-yl)propan-2-yl)amino)-2-oxoacetyl)-N-(4-fluoro-3-methylphenyl)-1-(2-fluoroethyl)-2,4-dimethyl-1H-pyrrole-3-carboxamide], the EC50 in data set [1] is 50 to 499 nM. In data set [2], the CC50 at 7 days was greater than 30 µM.
On the same counts, the results for `Cc1noc(C2(NC(=O)C(=O)c3c(C)c(C(=O)Nc4ccc(F)c(C)c4)c(C)n3CCF)CC2)n1` [Example 203, N-(4-fluoro-3-methylphenyl)-1-(2-fluoroethyl)-2,4-dimethyl-5-(2-((1-(3-methyl-1,2,4-oxadiazol-5-yl)cyclopropyl)amino)-2-oxoacetyl)-1H-pyrrole-3-carboxamide] are less than 50 nM and greater than 30 µM.
The corresponding values for `Cc1cc(NC(=O)c2c(C)c(C(=O)C(=O)Nc3cccnc3)n(C)c2C)ccc1F` [Example 204, N-(4-fluoro-3-methylphenyl)-1,2,4-trimethyl-5-(2-oxo-2-(pyridin-3-ylamino)acetyl)-1H-pyrrole-3-carboxamide] are less than 50 nM and greater than 30 µM.
Turning to `Cc1cc(NC(=O)c2c(C)c(C(=O)C(=O)N[C@H]3CC[C@@](O)(C(F)(F)F)CC3)n(C)c2C)cnc1F` [Example 205, N-(6-fluoro-5-methylpyridin-3-yl)-5-(2-(((1r,4r)-4-hydroxy-4-(trifluoromethyl)cyclohexyl)amino)-2-oxoacetyl)-1,2,4-trimethyl-1H-pyrrole-3-carboxamide], the EC50 in data set [1] is less than 50 nM. The CC50 at 7 days in data set [2] is greater than 30 µM.
With `Cc1cc(NC(=O)c2c(C)c(C(=O)C(=O)NC3(C)CC(F)(F)C3)n(C)c2C)cnc1F` [Example 206, 5-(2-((3,3-difluoro-1-methylcyclobutyl)amino)-2-oxoacetyl)-N-(6-fluoro-5-methylpyridin-3-yl)-1,2,4-trimethyl-1H-pyrrole-3-c carboxamide], in data set [1], the EC50 was less than 50 nM. In addition, the CC50 at 7 days in data set [2] is greater than 30 µM.
As for `Cc1cc(NC(=O)c2c(C)c(C(=O)C(=O)N[C@H]3CC[C@@](O)(C(F)(F)F)CC3)n(C)c2C)ccc1F` [Example 207, N-(4-fluoro-3-methylphenyl)-5-(2-(((1r,4r)-4-hydroxy-4-(trifluoromethyl)cyclohexyl)amino)-2-oxoacetyl)-1,2,4-trimethyl-1H-pyrrole-3-carboxamide], the EC50 in data set [1] is less than 50 nM. This molecule also showed a CC50 at 7 days in data set [2] greater than 30 µM.
Consider `Cc1c(C(=O)Nc2ccnc(Cl)c2)c(C)n(C)c1C(=O)C(=O)N[C@H](C)C(F)(F)F` [Example 208, (R)-N-(2-chloropyridin-4-yl)-1,2,4-trimethyl-5-(2-oxo-2-((1,1,1-trifluoropropan-2-yl)amino)acetyl)-1H-pyrrole-3-carboxamide], for which the EC50 in data set [1] is less than 50 nM. In data set [2], this molecule showed a 50% cytotoxic concentration (CC50) at 7 days greater than 30 µM.
The corresponding values for `Cc1c(C(=O)Nc2ccnc(Cl)c2)c(C)n(C)c1C(=O)C(=O)NC1C2CC3CC1CC(O)(C3)C2` [Example 209, N-(2-chloropyridin-4-yl)-5-(2-(((1R,2s,3S,5s,7s)-5-hydroxyadamantan-2-yl)amino)-2-oxoacetyl)-1,2,4-trimethyl-1H-pyrrole-3-carboxamide] are less than 50 nM and greater than 30 µM.
On the same counts, the results for `Cc1cc(NC(=O)c2c(C)c(C(=O)C(=O)N[C@H]3CC[C@@H](O)CC3)n(CCF)c2C)ccc1F` [Example 210, N-(4-fluoro-3-methylphenyl)-1-(2-fluoroethyl)-5-(2-(((1s,4s)-4-hydroxycyclohexyl)amino)-2-oxoacetyl)-2,4-dimethyl-1H-pyrrole-3-carboxamide] are less than 50 nM and greater than 30 µM.
Consider `Cc1csc(NC(=O)C(=O)c2c(C)c(C(=O)Nc3ccc(F)c(C)c3)c(C)n2C)n1` [Example 211, N-(4-fluoro-3-methylphenyl)-1,2,4-trimethyl-5-(2-((4-methylthiazol-2-yl)amino)-2-oxoacetyl)-1H-pyrrole-3-carboxamide], for which the EC50 in data set [1] was less than 50 nM. Also, the CC50 at 7 days in data set [2] was greater than 30 µM.
`Cc1cc(NC(=O)c2c(C)c(C(=O)C(=O)Nc3ccc(F)nc3)n(C)c2C)ccc1F` [Example 212, N-(4-fluoro-3-methylphenyl)-5-(2-((6-fluoropyridin-3-yl)amino)-2-oxoacetyl)-1,2,4-trimethyl-1H-pyrrole-3-carboxamide]: the EC50 in data set [1] is less than 50 nM. This molecule also yielded a CC50 at 7 days in data set [2] of 5 to 30 µM.
In the case of `Cc1cc(NC(=O)c2c(C)c(C(=O)C(=O)N[C@H]3CC[C@](C)(O)CC3)n(C)c2C)ccc1F` [Example 213, N-(4-fluoro-3-methylphenyl)-5-(2-(((1r,4r)-4-hydroxy-4-methylcyclohexyl)amino)-2-oxoacetyl)-1,2,4-trimethyl-1H-pyrrole-3-carboxamide], the EC50 in data set [1] is less than 50 nM. The same molecule came in with a CC50 at 7 days in data set [2] greater than 30 µM.
On the same counts, the results for `Cc1cc(NC(=O)c2c(C)c(C(=O)C(=O)N[C@H]3CC[C@@](C)(O)CC3)n(C)c2C)ccc1F` [Example 214, N-(4-fluoro-3-methylphenyl)-5-(2-(((1s,4s)-4-hydroxy-4-methylcyclohexyl)amino)-2-oxoacetyl)-1,2,4-trimethyl-1H-pyrrole-3-carboxamide] are less than 50 nM and greater than 30 µM.
On the same counts, the results for `Cc1noc([C@H](C)NC(=O)C(=O)c2c(C)c(C(=O)Nc3ccc(F)c(C)c3)c(C)n2C)n1` [Example 215, (S)-N-(4-fluoro-3-methylphenyl)-1,2,4-trimethyl-5-(2-((1-(3-methyl-1,2,4-oxadiazol-5-yl)ethyl)amino)-2-oxoacetyl)-1H-pyrrole-3-carboxamide] are less than 50 nM and greater than 30 µM.
On the same counts, the results for `Cc1cc(NC(=O)C(=O)c2c(C)c(C(=O)Nc3ccc(F)c(C)c3)c(C)n2C)ccc1F` [Example 216, N-(4-fluoro-3-methylphenyl)-5-(2-((4-fluoro-3-methylphenyl)amino)-2-oxoacetyl)-1,2,4-trimethyl-1H-pyrrole-3-carboxamide] are less than 50 nM and 5 to 30 µM.
With `Cc1cc(NC(=O)c2c(C)c(C(=O)C(=O)N[C@@H](C)CO)n(C)c2C)ccc1F` [Example 217, (S)-N-(4-ffluoro-3-methylphenyl)-5-(2-((1-hydroxypropan-2-yl)amino)-2-oxoacetyl)-1,2,4-trimethyl-1H-pyrrole-3-carboxamide], the EC50 in data set [1] was less than 50 nM. Moreover, the CC50 at 7 days in data set [2] is greater than 30 µM.
